The target in one series is T1, wild type Sky1-353 (Drosophila melanogaster, UniProt Q9VIH7).
T1 construct: the TBC domain of Sky (Sky1-353) was expressed from the pET28a vector (Novagen) as an N-terminal His6-tag fusion; His6 (N); made in house; host or cells: E. coli C41 (DE3)
T1 sequence (Q9VIH7 1-353): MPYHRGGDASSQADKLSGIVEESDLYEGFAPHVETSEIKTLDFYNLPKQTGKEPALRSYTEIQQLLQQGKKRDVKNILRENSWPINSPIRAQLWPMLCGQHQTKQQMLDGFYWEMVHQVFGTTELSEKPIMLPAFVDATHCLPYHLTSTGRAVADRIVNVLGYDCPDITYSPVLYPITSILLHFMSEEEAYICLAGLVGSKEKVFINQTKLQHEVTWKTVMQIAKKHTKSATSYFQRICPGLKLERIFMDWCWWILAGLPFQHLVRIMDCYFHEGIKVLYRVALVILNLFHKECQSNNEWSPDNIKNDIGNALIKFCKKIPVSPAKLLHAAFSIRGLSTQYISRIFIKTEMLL
As to the kind of experiment: Liposome flotation assay. The class given is binding. To be noted: for binding of Sky1-353 to liposomes: PC:PS liposomes enriched with 2% of the indicated phosphoinositide. From the text: TBC1D24 and Skywalker regulate vesicle trafficking, a process that requires membrane interactions^20,24,30. We therefore hypothesized that the positively charged pocket of Sky serves as a binding module to negatively charged membranes. We used a liposome flotation assay and mixed Sky1-353 with liposomes produced from Folch-extracted total brain lipids and centrifuged the sample in a sucrose gradient. After recovering six fractions from the top to the bottom of the centrifugation tube we find that Sky1-353 is present in the top fractions that contain the liposomes. […] A major class of lipids that regulates presynaptic activity are phosphoinositides^31. Lipid strip interaction experiments using Sky1-353 are indeed compatible with Sky interacting with phosphoinositides. We therefore resorted to liposome flotation assays using liposomes composed of phosphatidylcholine and phosphatidylserine and supplemented with different types of phosphoinositides (FIG. 3b). […] Moreover, the binding can be reversed by adding increasing concentrations of salt, as would be expected from binding that is mainly driven by electrostatic interactions.
Liposomes were prepared using either Folch brain total lipid extract or using a mix of phosphatidylcholine and phosphatidylserine (80:20 ratio) supplemented with 0.5%, 2% or 5% of a specific phosphoinositide as indicated. The liposomes were subsequently incubated with 6 μg of wild-type or mutant Sky1-353. PI(4,5)P2-Grip (Echelon Biosciences, Salt Lake City, USA) was used as a positive control. Subsequently, this mix was loaded on a sucrose cushion (30% sucrose layer, 25% sucrose layer and HP30 buffer layer) and centrifuged. Individual fractions from the top to the bottom were collected and assayed using Western blotting against His6 (Sky) or GST (PI(4,5)P2-Grip).

The test system of series [1] is sky^1/2 mutants expressing Sky^R79C. Kind of series: Seizure assay in drug-fed flies. As to conditions: for rescue of seizure-like behaviour: versus mock-treated. In kind it is in vivo, Drosophila. On the procedure:
To assure that stimulation of PI(4,5)P2 levels in vivo can rescue the defects associated with the Skywalker cationic pocket mutants (Sky^R79C), a commercially available alkyl phospholipid compound, Miltefosine, with known impact on PI(4,5)P2 levels was tested for treatment of gender selected adult 4-7 day old sky^1/2 flies with cationic pocket mutations. For drug feeding, 10-20 flies per treatment vial were maintained in a 12 h light and dark cycle to maintain circadian rhythm, while the analysis was performed on 5 flies per vial for flight, after acclimatization to the test chamber, and 10 flies per vial for stimulation or behavioural challenge by vortexing. In total n=20 flies were analyzed per treatment as well as for the control flies reared on normal food (mock-treated). The effect of Miltefosine (Sigma, M5571) daily administered in dyed food at 50 μg/mL or at 100 μg/mL was tested over a feeding period of 2 and 8 days of drug exposure, after which animal behaviour was analyzed via flight and seizure assays.
Each data point represents averages of 10 animals tested over 8 days and analyzed per drug treatment as well as the control flies reared on normal food (mock-treated).
For drug treatment, a concentration range between […] was tested for daily administration. […] Treatments were performed and were tested over a feeding period of 2 and 8 days of drug exposure, after which animal behaviour was tested in flight and seizure assays.
Adult flies of the genotype sky^1/sky^2 (sky^1/2); nsyb-Gal4/UAS-Sky^R79C or genotypes as indicated, were raised at 21° C. on standard fly food, containing the indicated drugs (Miltefosine, Perifosine, Edelfosine, Erufosine) or on control food prepared without drugs. Animals were collected and gender selected 2 to 5 days after enclosure. On days 2 and 8 of incubation on drugs, flight assays were performed with groups of 5 gender-selected animals in each transparent vial. Following a tap to collect the animals at the bottom of the vial, behaviour was distinguished between walking, jumping and flight. Seizure assays were performed with groups of 10 gender-selected animals that were transferred into transparent vials and excited by vortexing once for 10 seconds in behaviour studies, or in a sequence (1 minute vortexing, 1 minute rest, 1 minute vortexing) for drug treatment studies. This test sequence was repeated following 5 minutes of rest. Active and fallen flies were quantified over the course of the following minute. To ensure natural behaviour animals were not anesthetized on the day of experiments or over the course of drug application.

Series [2] concerns the target T2, 5′-phosphatase domain of Synaptojanin-1 (Homo sapiens, UniProt O43426).
T2 construct: made in house
As to the kind of experiment: Malachite Green phosphatase assay. The class given is biochemical. To be noted: 1 mM compound, 1% DMSO, 40 μM IP3 substrate, 1 h, background subtracted. From the text:
First, an expression plasmid for the recombinant expression of the 5′-phosphatase domain of Synj1 (SEQ ID NO:1) was constructed. […] A commercially available assay in a 96-well plate format is the Malachite Green Phosphate Assay Kit (BioAssay Systems).
After assay optimization, the assay is used to measure inhibitory activity of known compounds as well as to further allow a high-throughput setup for compound screening.
The Malachite Green Phosphate Assay Kit (BioAssay Systems) is a discontinuous assay that measures the concentrations of enzymatically released phosphate after formation of a complex with malachite green and molybdate (absorbance is measured at 620 nm). […] As a read-out the Absorbance at 620 nm after 60 min incubation is measured and the background starting signal is subtracted. For inhibitory compound screening, 1 mM of the test compound dissolved in 1% DMSO was used.

The next series deals with T3, Sky1-353 R281C mutant (Drosophila melanogaster, UniProt Q9VIH7, R281C).
T3 construct: the TBC domain of Sky (Sky1-353) was expressed from the pET28a vector (Novagen) as an N-terminal His6-tag fusion; His6 (N); made in house; host or cells: E. coli C41 (DE3)
T3 sequence (Q9VIH7 1-353 R281C): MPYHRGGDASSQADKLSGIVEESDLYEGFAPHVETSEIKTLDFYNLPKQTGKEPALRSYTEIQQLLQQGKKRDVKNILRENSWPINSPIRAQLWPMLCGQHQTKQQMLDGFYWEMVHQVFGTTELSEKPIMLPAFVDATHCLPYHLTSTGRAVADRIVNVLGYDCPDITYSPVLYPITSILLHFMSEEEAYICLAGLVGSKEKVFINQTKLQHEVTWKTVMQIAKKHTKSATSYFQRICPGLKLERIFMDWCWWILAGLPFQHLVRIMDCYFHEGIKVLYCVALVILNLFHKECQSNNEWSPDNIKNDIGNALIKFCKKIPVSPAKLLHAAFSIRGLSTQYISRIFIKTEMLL
Kind of series: Thermal shift assay, IP3 binding to Sky1-353 R281C. To be noted: saturating amount of IP3, R281C mutant. The procedure:
(§1) The thermal stability of the R79C and R281C mutants in absence of ligands (Tm=32° C.) is somewhat lower compared to the wild type protein (Tm=34° C.) and the R335P mutant (Tm=35° C.). […] These experimental data moreover correspond with our structural data where R79 and R281 both form bifurcated electrostatic interactions with the phosphate on position 5, while R335 forms a single electrostatic interaction with the phosphate group on position 1 (FIG. 3e).
(§2) Thermal unfolding was detected by following SYPRO orange fluorescence using a CFX connect Real-Time PCR System (BioRad). […] The temperature was increased from 20° C. to 80° C. at 0.5° C./30s steps. All measurements were done in triplicate.

The target in a further series is T4, Sky1-353 R79C mutant (Drosophila melanogaster, UniProt Q9VIH7, R79C).
T4 construct: the TBC domain of Sky (Sky1-353) was expressed from the pET28a vector (Novagen) as an N-terminal His6-tag fusion; His6 (N); made in house; host or cells: E. coli C41 (DE3)
T4 sequence (Q9VIH7 1-353 R79C): as the sequence (Q9VIH7 1-353 R281C) above, with R79C, C281R counted along it
As to the kind of experiment: Thermal shift assay, IP3 binding to Sky1-353 R79C. The procedure:
as §1, §2

Another series deals with T5, Sky1-353 R335P mutant (Drosophila melanogaster, UniProt Q9VIH7, R335P).
T5 construct: the TBC domain of Sky (Sky1-353) was expressed from the pET28a vector (Novagen) as an N-terminal His6-tag fusion; His6 (N); made in house; host or cells: E. coli C41 (DE3)
T5 sequence (Q9VIH7 1-353 R335P): as the sequence (Q9VIH7 1-353 R281C) above, with C281R, R335P counted along it
Kind of series: Thermal shift assay, IP3 binding to Sky1-353 R335P. On the procedure:
as §1, §2

The target in series [3] is T6, wild type Sky1-353 (TBC domain of Skywalker) (Drosophila melanogaster, UniProt Q9VIH7).
T6 construct: the TBC domain of Sky (Sky1-353) was expressed from the pET28a vector (Novagen) as an N-terminal His6-tag fusion; His6 (N); made in house; host or cells: E. coli C41 (DE3)
T6 sequence (Q9VIH7 1-353): T1 sequence (Q9VIH7 1-353)
As to the kind of experiment: Thermal shift assay, ligand binding to wild type Sky1-353. The procedure: as §2

The conditions of series [4]: described in literature; listed as erufosine; cited from earlier work.
[5] abbreviates: PI(4,5)P2 varied from 0% to 5% in liposomes.

“Also recorded” adds a separate entry of the source.

T2 sequence (O43426 528-873): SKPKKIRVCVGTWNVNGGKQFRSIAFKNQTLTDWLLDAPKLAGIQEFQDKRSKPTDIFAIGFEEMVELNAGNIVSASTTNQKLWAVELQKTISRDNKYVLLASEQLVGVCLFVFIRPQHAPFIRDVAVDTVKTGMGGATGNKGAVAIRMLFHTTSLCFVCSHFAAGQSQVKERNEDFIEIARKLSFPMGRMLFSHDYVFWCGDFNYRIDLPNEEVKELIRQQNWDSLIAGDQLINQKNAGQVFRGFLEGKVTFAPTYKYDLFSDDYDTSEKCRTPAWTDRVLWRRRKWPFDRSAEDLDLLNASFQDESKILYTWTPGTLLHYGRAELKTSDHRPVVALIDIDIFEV

For the compound PI(3,4,5)P3, the “binding of Sky1-353 to liposomes” value at wild type Sky1-353 is recorded as “strongest binding”.

Consider `CCCCCCCCCCCCCCCCOP(=O)([O-])OCC[N+](C)(C)C` [Miltefosine], for which the “rescue of seizure-like behaviour” value is listed as “highly significant; also recorded: significant rescue of seizure-like behaviour” in series [1] (50 μg/mL in food, 2 days of drug feeding, p<0.001); “lasted at least up to 8 days after treatment; also recorded: significant rescue of seizure-like behaviour” in series [1] (50 μg/mL in food, 8 days of drug feeding, p<0.1); “did not lead to significant difference” in series [1] (100 μg/mL in food (probably toxic), 2 or 8 days). Further, the “inhibition of 5′-phosphatase activity” value in series [2] is “effective inhibitors; also recorded: complete inhibition”.

Take `CCCCCCCCCCCCCCCCCCOP(=O)([O-])OC1CC[N+](C)(C)CC1` [Perifosine]: the effect on seizures result in series [1] (1000 μg/mL daily in dyed food, up to 8 days) is reported as “positive effect”. In addition, the “inhibition of 5′-phosphatase activity” value in series [2] is reported as “effective inhibitors”; in series [2] (listed as Perisofine), “complete inhibition”.

For the compound “phosphatidylinositol 4,5-bisphosphate [PI(4,5)P2]”, on wild type Sky1-353, the “binding of Sky1-353 to liposomes” value is reported as “strongest binding”. Moreover, on wild type Sky1-353 (setting [5]), the “PI(4,5)P2 concentration at which full binding is reached” value turned out to be 2% and the “lowest PI(4,5)P2 concentration at which binding is observed” value is recorded as 0.5%.

Take PI(3)P: on wild type Sky1-353, the “binding of Sky1-353 to liposomes” value is “does not bind”.

Regarding PI(4)P, the “binding of Sky1-353 to liposomes” value at wild type Sky1-353 was “weak but significant binding”.

For phosphatidylinositol [PI], the “binding of Sky1-353 to liposomes” value on wild type Sky1-353 is given as “does not bind”.

What is called Kd is the free concentration of one partner at which half of the binding sites on the other are occupied at equilibrium, for simple one-to-one binding. As for `O=P(O)(O)O[C@@H]1[C@H](O)[C@H](O)[C@@H](OP(=O)(O)O)[C@H](OP(=O)(O)O)[C@H]1O` [IP3, inositol 1,4,5-trisphosphate], the “increase in thermal stability” value was determined as 4 °C on Sky1-353 R281C mutant; 4 °C at Sky1-353 R79C mutant (saturating amount of IP3, R79C mutant); 8 °C at Sky1-353 R335P mutant (saturating amount of IP3, R335P mutant). For the same compound, the results for the equilibrium dissociation constant (Kd) (at Sky1-353 R79C mutant; at Sky1-353 R335P mutant; in series [3]) were 325 ± 200 µM, 67 ± 17 µM and 19 ± 3 µM, respectively.

As for `CCCCCCCC/C=C\CCCCCCCCCCCCOP(=O)([O-])OCC[N+](C)(C)C` [Erufosine], in series [4], the blood-brain-barrier crossing entry is “known to allow BBB crossing”.

For PI(5)P, on wild type Sky1-353, the “binding of Sky1-353 to liposomes” value was “weak but significant binding”.

The values are drawn from patent US20200093843A1, “COMPOUNDS FOR TREATMENT OF INTRACTABLE EPILEPSY AND DOORS SYNDROME” (VIB VZW, priority 2016, published 2020).
